According to PubChem BioAssay AID330 (DTP/NCI, 2004):
Several values for one entry are separate records, joined by “and”; a condition that tells them apart may be missing. Equal entries are not always repeated. Toxic doses and inconclusive results are not listed. Peptide text beside a SMILES is read from it. * marks the point of attachment. Cbz = O=C(OCc1ccccc1)*; OtBu = CC(C)(C)O*

Tested on: P388 leukemia ip, CD2F1 mice, survival T/C
Assay: NCI In Vivo Anticancer Drug Screen. Data for tumor model P388 Leukemia (intraperitoneal) in CD2F1 (CDF1) mice
Settings: endpoint: median survival time, higher = longer survival
Outline: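 Mice carrying the transplanted tumor received test compound or vehicle. Survival was recorded in each group, and the value is the treated-group measurement divided by that of the vehicle-treated control group.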

[1] = dose: 50.0 mg/kg/injection, schedule: Q01DX005 (ip), vehicle: Klucel (hydroxypropylcellulose) (HPC)
[2] = dose: 60.0 mg/kg/injection, schedule: Q01DX005 (ip), vehicle: saline with Tween-80
[3] = dose: 120.0 mg/kg/injection, schedule: Q01DX005 (ip), vehicle: saline with Tween-80
[4] = dose: 12.5 mg/kg/injection, schedule: Q01DX009 (ip), vehicle: saline with Tween-80
[5] = dose: 25.0 mg/kg/injection, schedule: Q01DX009 (ip), vehicle: saline with Tween-80
[6] = dose: 50.0 mg/kg/injection, schedule: Q01DX009 (ip), vehicle: saline with Tween-80
[7] = dose: 100.0 mg/kg/injection, schedule: Q01DX009 (ip), vehicle: saline with Tween-80
[8] = dose: 100.0 mg/kg/injection, schedule: Q04DX003 (ip), vehicle: saline with Tween-80
[9] = dose: 200.0 mg/kg/injection, schedule: Q04DX003 (ip), vehicle: saline with Tween-80
[10] = dose: 400.0 mg/kg/injection, schedule: Q04DX003 (ip), vehicle: saline with Tween-80
[11] = dose: 200.0 mg/kg/injection, schedule: Q01DX009 (ip), vehicle: saline with Tween-80
[12] = dose: 50.0 mg/kg/injection, schedule: Q01DX009 (ip), vehicle: saline
[13] = dose: 100.0 mg/kg/injection, schedule: Q01DX009 (ip), vehicle: saline

With `S=c1nc[nH]c2ccc3[nH]ncc3c12` the T/C (dose: 6.25 mg/kg/injection, schedule: Q01DX005 (ip), vehicle: saline with Tween-80) was 93 % of control, the T/C (dose: 12.5 mg/kg/injection, schedule: Q01DX005 (ip), vehicle: saline with Tween-80) was 90 % of control and the T/C (dose: 25.0 mg/kg/injection, schedule: Q01DX005 (ip), vehicle: saline with Tween-80) was 92 % of control.
With `CC12CSC(C)(SC1)SC2` the T/C (dose: 25.0 mg/kg/injection, schedule: Q01DX001 (ip), vehicle: Klucel (hydroxypropylcellulose) (HPC)) was 99 % of control, the T/C (dose: 50.0 mg/kg/injection, schedule: Q01DX001 (ip), vehicle: Klucel (hydroxypropylcellulose) (HPC)) was 99 % of control and the T/C (dose: 100.0 mg/kg/injection, schedule: Q01DX001 (ip), vehicle: Klucel (hydroxypropylcellulose) (HPC)) was 100 % of control. The T/C (dose: 200.0 mg/kg/injection, schedule: Q01DX001 (ip), vehicle: Klucel (hydroxypropylcellulose) (HPC)) was 100 % of control and the T/C (dose: 400.0 mg/kg/injection, schedule: Q01DX001 (ip), vehicle: Klucel (hydroxypropylcellulose) (HPC)) was 95 % of control.
`c1nc2c3c4c(sc3ncn2n1)CCCC4` was tested, and the T/C [1] was 98 % of control, the T/C (dose: 100.0 mg/kg/injection, schedule: Q01DX005 (ip), vehicle: Klucel (hydroxypropylcellulose) (HPC)) was 106 % of control and the T/C (dose: 200.0 mg/kg/injection, schedule: Q01DX005 (ip), vehicle: Klucel (hydroxypropylcellulose) (HPC)) was 91 % of control.
In the case of `CC(=O)OCC1OC(OC2CC(=O)C[C@H]3C(=O)N(c4ccccc4)C(=O)[C@@H]23)C(OC(C)=O)C(OC(C)=O)C1OC(C)=O` (stereo partly specified), the T/C [2] was 102 % of control, the T/C [3] was 103 % of control and the T/C (dose: 240.0 mg/kg/injection, schedule: Q01DX005 (ip), vehicle: saline with Tween-80) was 92 % of control.
`CSc1cccc(NC(=O)Oc2c(Cl)cccc2Cl)c1` was tested, and the T/C (dose: 50.0 mg/kg/injection, schedule: Q01DX009 (ip), vehicle: gum acacia) was 113 % of control and the T/C (dose: 100.0 mg/kg/injection, schedule: Q01DX009 (ip), vehicle: gum acacia) was 111 % of control.
In the case of `COC(=O)C1=COC(OC2OC(COC(C)=O)C(OC(C)=O)C(OC(C)=O)C2OC(C)=O)C2C(C)CC(OC(C)=O)C12` (stereo unspecified), the T/C (dose: 12.5 mg/kg/injection, schedule: Q01DX005 (ip), vehicle: Klucel (hydroxypropylcellulose) (HPC)) was 105 % of control, the T/C (dose: 25.0 mg/kg/injection, schedule: Q01DX005 (ip), vehicle: Klucel (hydroxypropylcellulose) (HPC)) was 98 % of control and the T/C [1] was 96 % of control.
For `COc1cc(C=Nc2cc(Cl)c(O)c(Cl)c2)ccc1N(CCCl)CCCl`, the T/C (dose: 12.0 mg/kg/injection, schedule: Q04DX003 (ip), vehicle: saline) was 204 % of control, the T/C (dose: 17.0 mg/kg/injection, schedule: Q04DX003 (ip), vehicle: saline) was 263 % of control and the T/C (dose: 25.0 mg/kg/injection, schedule: Q04DX003 (ip), vehicle: saline) was 100 % of control.
For `O=C(/C=C/c1c2ccccc2cc2ccccc12)c1ccc(C(=O)/C=C/c2c3ccccc3cc3ccccc23)cc1`, the T/C [4] was 105 % of control and the T/C [5] was 90 % of control.
In the case of `O=[N+]([O-])c1ccc(-c2nc(/C=N/N3CCCCC3)cs2)s1`, the T/C [5] was 104 % of control, the T/C [6] was 106 % of control and the T/C [7] was 109 % of control.
For `COC(=O)C(CCC(=O)OC(C)(C)C)NC(=O)C(NC(=O)OCc1ccccc1)C(C)C` (stereo not drawn) (Cbz-Val-Glu(OtBu)-OMe; configuration not given here), the T/C [8] was 110 % of control, the T/C [9] was 120 % of control and the T/C [10] was 90 % of control.
`C[Si](C)(C)CNCCNC[Si](C)(C)C` was tested, and the T/C [2] was 105 % of control and the T/C [3] was 98 % of control.
With `CCCCOc1cc([N+](=O)[O-])ccc1CO` the T/C [8] was 100 % of control, the T/C [9] was 100 % of control and the T/C [10] was 95 % of control.
For `CCn1c(=S)[nH]c2sc3c(c2c1=O)CCCC3`, the T/C [2] was 92 % of control and the T/C [3] was 89 % of control.
In the case of `COc1ccc(C2OC(=O)c3ncccc32)cc1` (stereo unspecified), the T/C [6] was 102 % of control, the T/C [7] was 104 % of control and the T/C [11] was 104 % of control.
In the case of `Nc1nc(Cl)nc(Nc2ccc(-c3cc4ccc(-c5ncc[nH]5)cc4[nH]3)cc2)n1`, the T/C (dose: 60.0 mg/kg/injection, schedule: Q01DX005 (ip), vehicle: Klucel (hydroxypropylcellulose) (HPC)) was 88 % of control, the T/C (dose: 120.0 mg/kg/injection, schedule: Q01DX005 (ip), vehicle: Klucel (hydroxypropylcellulose) (HPC)) was 88 % of control and the T/C (dose: 240.0 mg/kg/injection, schedule: Q01DX005 (ip), vehicle: Klucel (hydroxypropylcellulose) (HPC)) was 87 % of control.
In the case of `O=S1(c2ccccc2)=NC(Nc2ccccc2)=Nc2ccccc21` (stereo unspecified), the T/C [6] was 107 % of control, the T/C [7] was 101 % of control and the T/C [11] was 111 % of control.
In the case of `CN1CCN(CCCN2CC(=O)N3Cc4ccccc4CN3C(=O)C2)CC1`, the T/C (dose: 50.0 mg/kg/injection, schedule: Q01DX005 (ip), vehicle: saline) was 102 % of control, the T/C (dose: 100.0 mg/kg/injection, schedule: Q01DX005 (ip), vehicle: saline) was 102 % of control and the T/C (dose: 200.0 mg/kg/injection, schedule: Q01DX005 (ip), vehicle: saline) was 103 % of control.
For `CCC1=C[C@H]2CN(CCc3c([nH]c4ccccc34)[C@@](C(=O)OC)(c3cc4c(cc3OC)N(C)[C@H]3[C@@](O)(C(=O)OC)[C@H](OC(C)=O)[C@]5(CC)C=CCN6CC[C@]43[C@@H]65)C2)C1`, the T/C (dose: 0.06 mg/kg/injection, schedule: Q01DX009 (ip), vehicle: water) was 109 % of control, the T/C (dose: 0.13 mg/kg/injection, schedule: Q01DX009 (ip), vehicle: water) was 162 % of control and the T/C (dose: 0.2 mg/kg/injection, schedule: Q01DX009 (ip), vehicle: saline) was 151 % of control. For the same molecule, the T/C (dose: 0.25 mg/kg/injection, schedule: Q01DX009 (ip), vehicle: water) was 106 % of control, the T/C (dose: 0.4 mg/kg/injection, schedule: Q01DX009 (ip), vehicle: saline) was 163 % of control and the T/C (dose: 0.5 mg/kg/injection, schedule: Q04DX003 (ip), vehicle: water) was 151 % of control. For the same molecule, the T/C (dose: 0.8 mg/kg/injection, schedule: Q01DX009 (ip), vehicle: saline) was 178 % of control, the T/C (dose: 1.0 mg/kg/injection, schedule: Q04DX003 (ip), vehicle: water) was 169 % of control and the T/C (dose: 2.0 mg/kg/injection, schedule: Q04DX003 (ip), vehicle: water) was 205 % of control. For the same molecule, the T/C (dose: 4.0 mg/kg/injection, schedule: Q04DX003 (ip), vehicle: water) was 241 % of control and the T/C (dose: 8.0 mg/kg/injection, schedule: Q04DX003 (ip), vehicle: water) was 87 % of control.
`COc1ccc(CN2COc3c(cc(Cl)c4cccnc34)C2)cc1` was tested, and the T/C (dose: 100.0 mg/kg/injection, schedule: Q04DX003 (ip), vehicle: Klucel (hydroxypropylcellulose) (HPC)) was 96 % of control, the T/C (dose: 200.0 mg/kg/injection, schedule: Q04DX003 (ip), vehicle: Klucel (hydroxypropylcellulose) (HPC)) was 104 % of control and the T/C (dose: 400.0 mg/kg/injection, schedule: Q04DX003 (ip), vehicle: Klucel (hydroxypropylcellulose) (HPC)) was 95 % of control.
`CCOC(=O)c1nnc2cc(-c3ccccc3)nn2c1-c1ccccc1` was tested, and the T/C [2] was 101 % of control and the T/C [3] was 95 % of control.
For `CC(=O)C(N=Nc1ccc(S(=O)(=O)Nc2ncccn2)cc1)C(C)=O`, the T/C [8] was 92 % of control, the T/C [9] was 88 % of control and the T/C [10] was 90 % of control.
With `CCCCCCCCCCCCN(C)C` the T/C [4] was 100 % of control, the T/C [5] was 100 % of control and the T/C [6] was 100 % of control.
In the case of `O=C1C=CC2(O)CCCN12` (stereo unspecified), the T/C (dose: 5.0 mg/kg/injection, schedule: Q01DX005 (ip), vehicle: saline) was 106 % of control, the T/C (dose: 10.0 mg/kg/injection, schedule: Q01DX005 (ip), vehicle: saline) was 110 % of control and the T/C (dose: 20.0 mg/kg/injection, schedule: Q01DX005 (ip), vehicle: saline) was 118 % of control.
`N#CN` was tested, and the T/C (dose: 12.5 mg/kg/injection, schedule: Q01DX009 (ip), vehicle: suspension in saline) was 103 % of control, the T/C (dose: 25.0 mg/kg/injection, schedule: Q01DX009 (ip), vehicle: suspension in saline) was 97 % of control and the T/C [12] was 91 % of control and 103 % of control. The T/C (dose: 50.0 mg/kg/injection, schedule: Q01DX009 (ip), vehicle: suspension in saline) was 107 % of control, the T/C [13] was 101 % of control and 106 % of control and the T/C (dose: 200.0 mg/kg/injection, schedule: Q01DX009 (ip), vehicle: saline) was 102 % of control.
For `CCOC(=O)C(=CNc1ccccc1)C(=O)OCC`, the T/C [5] was 103 % of control, the T/C [6] was 100 % of control and the T/C [7] was 103 % of control. For the same molecule, the T/C [11] was 100 % of control.
For `COc1ccc(-n2c(-c3ccc(Cl)cc3)csc2=N)c(OC)c1`, the T/C [5] was 97 % of control, the T/C [6] was 106 % of control and the T/C [12] was 114 % of control. The T/C [7] was 100 % of control and the T/C [13] was 109 % of control.
In the case of `CCCCCCCCCCCCCCCC[N+]1(CC)CCCCC1`, the T/C (dose: 0.59 mg/kg/injection, schedule: Q01DX009 (ip), vehicle: saline) was 121 % of control and the T/C (dose: 0.78 mg/kg/injection, schedule: Q01DX009 (ip), vehicle: saline) was 89 % of control.
